From patent US4486433A, “Fused-ring amino-pyrazines as bradycardiacs” (Dr. Karl Thomae Gesellschaft mit beschrankter Haftung, priority 1980, dated 1984)

Key:
[1] = tested on: circulation of intact, anesthetized rats; assay: Effect upon blood pressure and heart rate in intact, anesthetized rats after intravenous injection; assay type: in vivo; settings: 3 mg/kg i.v.
Method: 1. Effect upon blood pressure and heart rate
The changes in the circulation of intact, anesthetized rats after intravenous injection of the test compound were recorded.
Male laboratory rats having a body weight of 120-360 gm were anesthetized with pentobarbital (70 mgm/kg). The animals breathed spontaneously through a tracheal cannula. The blood pressure was continuously measured in an A. carotis with the aid of an electro-mechanical pressure transducer; the pulse wave triggered a tachograph which continuously recorded the heart rate. Both parameters were plotted on a polygraph. The test compound was injected through a catheter into a V. jugularis.
At a dose of 3 mgm/kg i.v. the test compounds produced an initial increase in the blood pressure of short duration and then a long-lasting decrease in the blood pressure. The decrease in the heart rate was distinct and of long duration.

[2] = tested on: presynaptic α-adrenoceptors; assay: Inhibition of electrically induced tachycardia in the spinal rat; assay type: in vivo, rats; settings: i.v.
From the text: There is an auto-regulation system of the noradrenaline release at the adrenergic nerve ends. The stimulation of presynaptic α-adrenoreceptors has an inhibiting effect upon the noradrenaline release and thus a limiting effect upon the adrenergic neurotransmission. Accordingly, upon stimulation of these "feedback receptors", the effect of a given adrenergic stimulation on the […] is reduced.
Male laboratory rats having a body weight of 350-400 gm were anesthetized with pentobarbital (50 mgm/kg i.p.), vagotomized, treated with atropine (1 mgm/kg s.c.), and a tracheal cannula was inserted. After enucleation of an eye, the orbita was punctured, the brain was destroyed, and a metal rod was pushed through the vertebral canal. Artificial respiration was applied to the animals, and they were pre-treated with gallamine (4 mgm/kg i.v.). […] Upon insertion of the rod into the vertebral canal, this uninsulated section is positioned in the area of the last cervical vertebra and the first thoracic vertebra. With the aid of a stimulator a supramaximal stimulus (rectangular impulses 50 V, 2 ms; 0.2 Hz; duration of stimulus 25 sec.) was applied against a counter-electrode inserted into the neck skin.
The blood pressure was measured in an A. carotis by means of an electro-mechanical pressure transducer. […] Both of these signals were recorded on a polygraph.

[3] = tested on: postsynaptic α-adrenoreceptos; assay: Hypertensive activity in the spinal rat; assay type: in vivo, rats; settings: i.v.
Method: 3. Effect on postsynaptic α-adrenoreceptos: Hypertensive activity in the spinal rat
The increase in blood pressure which occurs upon stimulation of postsynaptic α-adrenoreceptos was measured on the spinal rat model.
Male laboratory rats having a body weight of 200-250 gm were anesthetized (1.2 gm/kg urethane i.p., 1 mgm/kg atropine s/c/). Thereafter, the central spinal cord canal was opened, the spinal cord was severed at C1, and the medulla oblongata and the brain were destroyed with a metal sound. Artificial respiration was applied to the animals, and a polyethylene catheter was tied into a jugular vein. The blood pressure was measured in an A. carotis and continuously recorded by means of a Statham element on a Grass polygraph. The test compound was administered i.v. by way of the catheter.
From the raw data thus obtained, the dose of the test compound which increases the arterial blood pressure by 30 mm Hg (D30) was determined.

Acute toxicity in mice = settings: mouse, in vivo, observation time 14 days
Method: The acute toxicity was determined in mice after oral or intravenous administration. Observation time: 14 days.

Structure (SMILES) | Blood pressure, depressor phase (maximum value) [1] [mm Hg] | Blood pressure, pressor phase (maximum value) [1] | Heart rate reduction (maximum value) [1] [beats/minute] | D50 (dose which inhibits the electrically induced tachycardia by 50%) [2] [μgm/kg] | D30 (dose which increases the arterial blood pressure by 30 mm Hg) [3] | LD50 at 336 h (Acute toxicity in mice; iv) [mg/kg] | LD50 at 336 h (Acute toxicity in mice; po) [mg/kg]
CCN1CCc2nc(N)c(Br)nc2CC1.Cl [Compound D, 7-Ethyl-2-amino-3-bromo-6,7,8,9-tetrahydro-5H-pyrazino[2,3-d]azepine hydrochloride] | -5 | +50 mm Hg | -55 |  |  |  | 
CCN1CCc2ncc(N)nc2CC1.Cl.Cl [A, 7-Ethyl-2-amino-6,7,8,9-tetrahydro-5H-pyrazino[2,3-d]azepine dihydrochloride] | -20 | +61 mm Hg | -116 | 28 | 480 μgm/kg | 215 | 1250
CCN1CCc2nc(N)c(Cl)nc2CC1.Cl [E, 7-Ethyl-2-amino-3-chloro-6,7,8,9-tetrahydro-5H-pyrazino[2,3-d]azepine hydrochloride] | -11 | +32 mm Hg | -70 |  |  |  | 
Cl.Nc1cnc2c(n1)CCN(C1CC1)CC2 [H, 2-Amino-7-cyclopropyl-6,7,8,9-tetrahydro-5H-pyrazino[2,3-d]azepine hydrochloride] | -28 | +51 mm Hg | -110 |  |  |  | 
CCN1CCc2nc(C)c(N)nc2CC1.Cl.Cl [F, 7-Ethyl-2-amino-6,7,8,9-tetrahydro-3-methyl-5H-pyrazino-[2,3-d]azepine dihydrochloride] | -10 | +38 mm Hg | -78 |  |  |  | 
CN1CCc2ncc(N)nc2CC1.Cl.Cl [C, 2-Amino-6,7,8,9-tetrahydro-7-methyl-5H-pyrazino[2,3-d]azepine dihydrochloride] | -36 | +26 mm Hg | -105 |  |  |  | 
C=CCN1CCc2ncc(N)nc2CC1.Cl.Cl [B, 7-Allyl-2-amino-6,7,8,9-tetrahydro-5H-pyrazino[2,3-d]azepine dihydrochloride] | -20 | +40 mm Hg | -122 |  | 2.6 mgm/kg |  | 
CCN1CCc2nc(N)cnc2C1.Cl.Cl [G, 6-Ethyl-2-amino-5,6,7,8-tetrahydro-pyrido[3,4-b]pyrazine dihydrochloride] | -41 | +6 mm Hg | -145 | 670 | 1.4 mgm/kg |  | 
